Consider three molecules from PMC5700983 (Nature Communications, 2017).

SMILES strings stand for the structures. Where two headings read alike, the source gives them in different places.

Assay [1] deals with T1, Te_PtxB (Trichodesmium erythraeum, UniProt Q119I9). As to the kind of experiment: biochemical. The format is binding, Trichodesmium erythraeum IMS101.
For another assay, the target named is Ps_PtxB (Stutzerimonas stutzeri, UniProt O69052). As to the kind of experiment: biochemical. It is filed as binding, Pseudomonas stutzeri WM88.
Sequence of Ps_PtxB (O69052 24-287): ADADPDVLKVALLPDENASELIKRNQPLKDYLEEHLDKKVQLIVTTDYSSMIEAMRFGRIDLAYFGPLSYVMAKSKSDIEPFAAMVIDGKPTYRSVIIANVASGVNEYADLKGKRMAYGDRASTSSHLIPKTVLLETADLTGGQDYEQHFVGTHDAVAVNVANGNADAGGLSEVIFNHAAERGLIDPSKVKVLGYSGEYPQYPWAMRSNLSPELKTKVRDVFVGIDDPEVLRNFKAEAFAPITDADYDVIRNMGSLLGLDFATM
The target of a further assay is Pm_PhnD (Prochlorococcus marinus, UniProt A3PC74). As to the kind of experiment: biochemical. The format is binding, Prochlorococcus marinus MIT9301.
Sequence of Pm_PhnD (A3PC74 25-297): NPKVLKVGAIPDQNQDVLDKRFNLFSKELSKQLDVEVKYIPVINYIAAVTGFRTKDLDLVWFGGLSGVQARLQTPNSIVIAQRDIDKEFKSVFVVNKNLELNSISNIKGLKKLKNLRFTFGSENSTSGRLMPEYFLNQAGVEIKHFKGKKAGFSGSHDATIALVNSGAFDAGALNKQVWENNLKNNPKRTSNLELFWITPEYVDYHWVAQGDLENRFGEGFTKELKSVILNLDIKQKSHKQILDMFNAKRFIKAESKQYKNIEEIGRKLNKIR
Assay [2] deals with Te_PtxB, Pm_PhnD and Ps_PtxB. The format is binding.
In another assay the target is Ec_PhnD. The following applies: cited from earlier work.
Assay [3] deals with T2, HtxB (Stutzerimonas stutzeri, UniProt O69061). The following applies: pH 7.4.
T2 sequence (O69061 34-298): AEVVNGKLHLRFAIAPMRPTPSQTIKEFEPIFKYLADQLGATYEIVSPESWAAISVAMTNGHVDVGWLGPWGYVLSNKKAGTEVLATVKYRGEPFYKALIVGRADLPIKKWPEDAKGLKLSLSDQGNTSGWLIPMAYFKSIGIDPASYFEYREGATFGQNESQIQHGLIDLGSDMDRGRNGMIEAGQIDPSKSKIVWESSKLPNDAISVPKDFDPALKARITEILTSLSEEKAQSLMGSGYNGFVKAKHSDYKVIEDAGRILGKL
Assay [4] has as its target T3, Te_PtxB Y208F (Trichodesmium erythraeum, UniProt Q119I9, Y234F).
The test system of assay [5] is E. coli strain devoid of its native phosphate acquisition systems. The following applies: cited from earlier work.
The test system is the same in assay [6]. The following applies: cited from earlier work. This is another data set of the same source.
The target in a further assay is Te_PtxB Y208A (Trichodesmium erythraeum, UniProt Q119I9, Y234A). As to the kind of experiment: biochemical.
Sequence of Te_PtxB Y208A (Q119I9 28-298 Y234A limits assumed): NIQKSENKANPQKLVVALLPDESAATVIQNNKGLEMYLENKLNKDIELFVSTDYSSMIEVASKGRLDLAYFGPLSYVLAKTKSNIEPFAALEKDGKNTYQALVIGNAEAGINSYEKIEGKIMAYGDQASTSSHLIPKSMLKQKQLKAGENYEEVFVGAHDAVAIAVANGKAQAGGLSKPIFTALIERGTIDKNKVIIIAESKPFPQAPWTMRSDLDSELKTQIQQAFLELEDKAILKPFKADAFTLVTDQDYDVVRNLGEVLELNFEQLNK
In assay [7] the target is T3, Te_PtxB Y208F. In words: biochemical.
In the next assay the target is Pm_PtxB. Conditions: cited from earlier work.
In assay [8] the target is T2, HtxB. In words: biochemical.
Assay [9] addresses T1, Te_PtxB. As to the kind of experiment: biochemical.

T1 sequence (Q119I9 28-298 limits assumed): as the sequence (Q119I9 28-298 Y234A limits assumed) above, with A207Y counted along it
T3 sequence (Q119I9 28-298 Y234F limits assumed): as the sequence (Q119I9 28-298 Y234A limits assumed) above, with A207F counted along it

For the molecule `NCCP(=O)(O)O` [2-Aminoethylphosphonate, 2-aminoethylphosphonate], on Te_PtxB [1] (pH 7.4), the “K d, Te_PtxB” value was “NBD”. Moreover, the “K d, Ps_PtxB” value on Ps_PtxB (pH 7.4) is “NBD”. Also, the “K d, Pm_PhnD” value at Pm_PhnD (pH 7.4) is “NBD”. Moreover, in assay [2], the “binding, result in words” value is on record as “None of the proteins showed any evidence of binding”. Also, at Ec_PhnD, the “binding affinity for Ec_PhnD, in words” value is given as “low nanomolar”.

As for `O=P(O)(O)O` [Phosphate], the figures for the Kd on Ps_PtxB, on Te_PtxB Y208A and at Te_PtxB Y208F [7] were 159 ± 36 µM, 51.3 ± 1.76 µM and above 60000 µM, respectively. For the same molecule, the “K d, HtxB” value on HtxB [3] is on record as “NBD”. The “binding to Te_PtxB Y208F, result in words” value on Te_PtxB Y208F [4] is listed as “essentially abolished”. In addition, the “growth of E. coli strain with PtxD and Ralstonia sp. 4506 PtxABC” value in assay [5] is listed as “grew”. For the same molecule, the “growth of E. coli strain with HtxBCDE” value in assay [6] is given as “did not allow growth”.

With `O=[PH](O)O` [Phosphite, phosphite], the “higher binding affinity for phosphite than phosphate and phosphonates, Te_PtxB” value on Te_PtxB [1] is listed as 2–4 orders of magnitude. For the same molecule, the Kd was 0.17 ± 0.07 µM at Te_PtxB [1] (K d, Te_PtxB); around 0.17 µM on Te_PtxB [1] (Kd, PtxB (approximate, authors' response)); 0.17 µM at Te_PtxB [1] (Kd, Te_PtxB WT (as quoted in peer review file)); 0.24 ± 0.03 µM at Ps_PtxB; 0.051 ± 0.004 µM on Pm_PhnD; 0.05 to 0.24 µM in assay [2] (read-out: K d range over Te_PtxB, Pm_PhnD and Ps_PtxB). In addition, the Kd was above 10000 µM at HtxB [8]; 134 ± 6.4 µM on Te_PtxB Y208A (K d, Te_PtxB Y208A); 135 µM at Te_PtxB Y208A (Kd, Te_PtxB Y208A (as quoted in peer review file)); 295 ± 4.64 µM at Te_PtxB Y208F [7] (K d, Te_PtxB Y208F); 295 µM at Te_PtxB Y208F [7] (Kd, Te_PtxB Y208F (as quoted in peer review file)); 0.289 ± 0.064 µM at Te_PtxB [9]. Besides, on Pm_PhnD, the “higher binding affinity for phosphite than phosphate and phosphonates, Pm_PhnD” value is recorded as 2–4 orders of magnitude. Moreover, at Pm_PtxB, the “binding affinity for Pm_PtxB, in words” value was “low micromolar”. Moreover, the “growth of E. coli strain with PtxD and Ralstonia sp. 4506 PtxABC” value in assay [5] is “grew”. Also, in [6], the “growth of E. coli strain with HtxBCDE” value is “did allow growth”.
